How the values were obtained:
DLD-1 [1] = test: Cytotoxicity against human DLD-1 cells assessed as cell viability incubated for 48 hrs by MTT assay; type: functional, cell-based; details: DLD-1, 48 h
HT-29 = test: Cytotoxicity against human HT-29 cells assessed as cell viability incubated for 48 hrs by MTT assay; type: functional, cell-based; details: HT-29, 48 h
COLO 205 = test: Cytotoxicity against human COLO 205 cells assessed as cell viability incubated for 48 hrs by MTT assay; type: functional, cell-based; details: COLO 205, 48 h
[2] = Cytotoxicity against human CCD-986Sk cells assessed as cell viability incubated for 48 hrs by MTT assay; type: toxicity, cell-based
DLD-1 [3] = test: Induction of apoptosis in human DLD-1 cells assessed as viable cells at 10 uM incubated for 48 hrs by Annexin V staining based flow cytometry (reference value: 81.96 %); type: functional; details: read-out: Activity
DLD-1 [4] = test: Induction of apoptosis in human DLD-1 cells assessed as necrotic cells at 10 uM incubated for 48 hrs by Annexin V staining based flow cytometry (reference value: 5.12 %); type: functional
DLD-1 [5] = test: Induction of apoptosis in human DLD-1 cells assessed as early apoptotic cells at 10 uM incubated for 48 hrs by Annexin V staining based flow cytometry (reference value: 6.73 %); type: functional
DLD-1 [6] = test: Induction of apoptosis in human DLD-1 cells assessed as late apoptotic cells at 10 uM incubated for 48 hrs by Annexin V staining based flow cytometry (reference value: 6.19 %); type: functional
DLD-1 [7] = test: Induction of apoptosis in human DLD-1 cells assessed as viable cells at 5 uM incubated for 48 hrs by Annexin V staining based flow cytometry (reference value: 81.96 %); type: functional; details: read-out: Activity
DLD-1 [8] = test: Induction of apoptosis in human DLD-1 cells assessed as late apoptotic cells at 5 uM incubated for 48 hrs by Annexin V staining based flow cytometry (reference value: 6.19 %); type: functional
DLD-1 [9] = test: Induction of apoptosis in human DLD-1 cells assessed as early apoptotic cells at 5 uM incubated for 48 hrs by Annexin V staining based flow cytometry (reference value: 6.73 %); type: functional
DLD-1 [10] = test: Induction of apoptosis in human DLD-1 cells assessed as necrotic cells at 5 uM incubated for 48 hrs by Annexin V staining based flow cytometry (reference value: 5.12 %); type: functional

SMILES | IC50 (DLD-1 [1]) [µM] | IC50 (HT-29) [µM] | IC50 (COLO 205) [µM] | IC50 at 48 h [2] [µM] | viability at 10 µM (DLD-1 [3]) [%] | Activity (DLD-1 [4]) [%] | Activity (DLD-1 [5]) [%] | Activity (DLD-1 [6]) [%] | viability at 5 µM (DLD-1 [7]) [%] | Activity (DLD-1 [8]) [%] | Activity (DLD-1 [9]) [%] | Activity (DLD-1 [10]) [%]
NS(=O)(=O)c1ccc(-n2cc(COc3ccc(Br)cc3C=O)nn2)cc1 | 51.1 | > 200 | > 200 | > 200 | – | – | – | – | – | – | – | –
Cc1ccc(C(C)C)cc1OCc1cn(-c2ccc(S(N)(=O)=O)cc2)nn1 | 16.6 | 35.9 | > 200 | 12.8 | – | – | – | – | – | – | – | –
NS(=O)(=O)c1ccc(-n2cc(COc3ccc([N+](=O)[O-])cc3)nn2)cc1 | 76.8 | 78 | 124 | 69.8 | – | – | – | – | – | – | – | –
NS(=O)(=O)c1ccc(-n2cc(COc3ccc([N+](=O)[O-])cc3C=O)nn2)cc1 | 11.8 | 9.35 | 132 | > 200 | 55 | 2.85 | 33.56 | 8.59 | – | – | – | –
CC(=O)c1cc(Cl)ccc1OCc1cn(-c2ccc(S(N)(=O)=O)cc2)nn1 | 15.9 | 187 | > 200 | 51.3 | – | – | – | – | – | – | – | –
NS(=O)(=O)c1ccc(-n2cc(COc3ccc(Cl)cc3Cl)nn2)cc1 | 24.9 | 63.6 | 172 | 78.2 | – | – | – | – | – | – | – | –
CC(=O)c1ccc(OCc2cn(-c3ccc(S(N)(=O)=O)cc3)nn2)cc1 | 123 | > 200 | > 200 | > 200 | – | – | – | – | – | – | – | –
CC(=O)c1ccccc1OCc1cn(-c2ccc(S(N)(=O)=O)cc2)nn1 | 51 | 80 | 160 | 139 | – | – | – | – | – | – | – | –
Cc1ccc(C(C)C)c(OCc2cn(-c3ccc(S(N)(=O)=O)cc3)nn2)c1 | 35 | 33.2 | > 200 | 13.1 | – | – | – | – | – | – | – | –
O=c1[nH]cc(F)c(=O)[nH]1 [FLUOROURACIL] | 5.75 | 4.51 | 90.1 | 7.98 | – | – | – | – | 60.9 | 9.91 | 25.5 | 3.73
Cc1ccc(OCc2cn(-c3ccc(S(N)(=O)=O)cc3)nn2)c([N+](=O)[O-])c1 | 13 | 62.8 | 165 | 25.9 | – | – | – | – | – | – | – | –
C=CCc1ccc(OCc2cn(-c3ccc(S(N)(=O)=O)cc3)nn2)c(OC)c1 | 49.8 | 75.3 | > 200 | 134 | – | – | – | – | – | – | – | –
NS(=O)(=O)c1ccc(-n2cc(COc3ccc(C(=O)c4ccccc4)cc3)nn2)cc1 | 19 | 20.6 | > 200 | 15.2 | – | – | – | – | – | – | – | –
NS(=O)(=O)c1ccc(-n2cc(COc3cccc(C=O)c3)nn2)cc1 | 122 | > 200 | 40.9 | > 200 | – | – | – | – | – | – | – | –
CC(=O)c1cccc(OCc2cn(-c3ccc(S(N)(=O)=O)cc3)nn2)c1 | 79.2 | 128 | 81.3 | > 200 | – | – | – | – | – | – | – | –
NS(=O)(=O)c1ccc(-n2cc(COc3ccc(C=O)cc3)nn2)cc1 | 164 | > 200 | 75.1 | > 200 | – | – | – | – | – | – | – | –
NS(=O)(=O)c1ccc(-n2cc(COc3ccc4ccccc4c3C=O)nn2)cc1 | 153 | > 200 | > 200 | > 200 | – | – | – | – | – | – | – | –
NS(=O)(=O)c1ccc(-n2cc(COc3ccccc3C=O)nn2)cc1 | 52.1 | 65 | 147 | 96.3 | – | – | – | – | – | – | – | –
COc1cccc(C=O)c1OCc1cn(-c2ccc(S(N)(=O)=O)cc2)nn1 | 180 | > 200 | > 200 | > 200 | – | – | – | – | – | – | – | –
CCN(CC)c1ccc(C=O)c(OCc2cn(-c3ccc(S(N)(=O)=O)cc3)nn2)c1 | 53.4 | 41.9 | 148 | 185 | – | – | – | – | – | – | – | –
